# Test results from paper PMC12818745 (ACS Chemical Neuroscience, 2025).
# Target: T1, Tau protein aggregation (Homo sapiens, UniProt P10636)
# T1 construct: For the cloning and overexpression of full-length tau protein; expressed in transfected cells; host or cells: E. coli BL21 (DE3) carrying pTARA and pRKT42
# Assay: Thioflavin S assay of tau protein aggregation in E. coli cells overexpressing tau
# Type: cell-based, Escherichia coli
# Settings: read-out: Tau inhibition %
# Procedure: The antiaggregating profiles of both series A and B were evaluated using a fluorescence Thioflavin S (ThS) assay in cellulo, which monitors ThS fluorescence in the presence of β-sheet-rich structures, such as Aβ and tau protein aggregates. This method, based on recombinant Escherichia coli (E. coli) bacteria overexpressing insoluble aggregates, offers a simple and cost-effective approach to model aggregation processes in mammalian systems and has been validated for use in drug discovery studies. , Compounds were tested at a screening concentration of 50 μM for their ability to inhibit Aβ42 aggregation. The results, summarized in Table , reveal distinct antiaggregating profiles between series A and B, which are once again influenced by their structural differences.
# This strategic extension aimed to validate the chromeno[3,4-b]-xanthone scaffold for related aggregation targets, considering the structural and pathological similarities between Aβ and tau aggregation processes. […]. […] Nevertheless, it is important to interpret the results cautiously, as the inability of certain compounds to cross bacterial membranes, may have underestimated their true inhibitory activity in the assay.
# For the cloning and overexpression of full-length tau protein, E. coli BL21 (DE3) competent cells were transformed first with the pTARA vector containing the RNA polymerase gene of phage T7 (T7RP), controlled by the PBAD promoter. Subsequently, E. coli BL21(DE3) competent cells containing pTARA were transformed with the pRKT42 vector encoding four repeats of tau protein in two inserts. Similar to the procedure for Aβ42, overnight cultures were prepared by inoculating colonies of BL21 (DE3) cells bearing the plasmids in M9 medium supplemented with 0.5% glucose, 50 μg mL^–1 ampicillin, and 12.5 μg mL^–1 chloramphenicol at 37 °C. Upon induction, a 1:500 dilution of the overnight culture was added to fresh M9 minimal medium containing 0.5% glucose, 50 μg mL^–1 ampicillin, 12.5 μg mL^–1 chloramphenicol, and 25 μM ThS. The subsequent steps mirrored those for the Aβ assay, including the addition of the compound to be tested dissolved in DMSO and 10 μL of 25% arabinose or, alternatively, 10 μL of water for the noninduced controls, with a final compound concentration of […]. Negative controls for tau overexpression utilized free DMSO.
# ThS (T1892) and all other chemical reagents were purchased from Sigma (St. Louis, MO). Stock solutions of ThS (250 μM) were prepared using doubly distilled water purified via a Milli-Q system (Millipore). For the fluorescence assay, ThS spectra were recorded utilizing an AmincoBowman series 2 luminescence spectrophotometer (Aminco-Bowman AB2, SLM Aminco, Rochester, NY) within the range of 460 to 600 nm at a temperature of 25 °C. The excitation wavelength employed was 445 nm, with slit widths set at 4 nm. The emission at 485 nm, corresponding to the ThS peak observed in the presence of amyloids, was recorded. To standardize ThS fluorescence relative to bacterial concentration in both in vitro and cell-based assays, the OD600 was determined using a Shimadzu UV-2401 PC UV–vis spectrophotometer. Fluorescence normalization was executed by setting the ThS fluorescence of bacterial cells expressing the peptide or protein in the absence of the drug as 100%, while that of bacterial cells not expressing the peptide or protein was established as 0%.
# T1 sequence (P10636 other isoform, or with tags, fused parts or gaps): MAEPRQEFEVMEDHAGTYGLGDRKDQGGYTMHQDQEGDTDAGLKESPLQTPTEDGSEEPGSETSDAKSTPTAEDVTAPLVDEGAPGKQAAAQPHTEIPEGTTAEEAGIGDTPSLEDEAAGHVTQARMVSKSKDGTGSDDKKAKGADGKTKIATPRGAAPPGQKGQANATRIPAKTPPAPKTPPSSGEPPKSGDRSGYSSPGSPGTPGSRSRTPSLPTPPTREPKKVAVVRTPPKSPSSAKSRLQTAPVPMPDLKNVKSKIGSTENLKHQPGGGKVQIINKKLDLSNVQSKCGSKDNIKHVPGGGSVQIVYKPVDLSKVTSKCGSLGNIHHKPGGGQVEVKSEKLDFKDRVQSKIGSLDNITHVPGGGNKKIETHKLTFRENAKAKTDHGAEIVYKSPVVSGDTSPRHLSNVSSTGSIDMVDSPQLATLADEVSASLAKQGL
structure (smiles),measurement,value
"COc1ccc2c(=O)c3cc4c(cc3oc2c1)-c1cc(Cl)ccc1OC4 [Compound 11r, 2-Chloro-11-methoxy-6H,8H-chromeno[3,4-b]xanthen-8-one]",inhibition at 50 µM,61.3 ± 5.9%
